Measured values published in US9340577B2, “HLA binding motifs and peptides and their uses” (priority 1992, dated 2016).
pIC50: −log10 of the molar value. Like-named read-outs stand apart in the source and are kept apart here. No end group written: not given here.

Columns and labels:
Experiment in all cases: biochemical
[1] = biological target: A*0202 (Homo sapiens, UniProt P04439, D140Y/D185E/D98H/E176V/E277Q/G131W/G231S/I119L/I121R/I166T/I218V/L180W/L300P/L318F/N151K/N90K/P208A/P217A/Q67R/Q86G/Q94H/R138H/R169H/T345S); type: binding
[2] = biological target: A*0206 (Homo sapiens, UniProt P04439, D140Y/D185E/D98H/E176V/E277Q/F33Y/G131W/G231S/I119V/I121R/I166T/I218V/L300P/L318F/N151K/N90K/P208A/P217A/Q86G/Q94H/R138H/R169H/T345S); type: binding
[3] = biological target: A*6802 (Homo sapiens, UniProt P04439, A269V/D140Y/D185E/E176V/E277Q/E87N/F33Y/G231S/I121R/I166T/I218V/L180W/L300P/L318F/N151K/P208A/P217A/Q86R/R138H/R169H/S129P/T345S/V36M); type: binding
[4] = biological target: HLA-A*0201 (HLA-A2.1) (Homo sapiens, UniProt P04439, D140Y/D185E/D98H/E176V/E277Q/G131W/G231S/I119V/I121R/I166T/I218V/L300P/L318F/N151K/N90K/P208A/P217A/Q86G/Q94H/R138H/R169H/T345S); type: binding
[5] = biological target: DR1 (DRB1*0101) (Homo sapiens, UniProt P01903+P01911, A100R/D57E/F55L/F60I/F76Y/I96L/L162R/M171V/P40L/Q125E/R42F/V115G/Y59C); type: binding
[6] = biological target: DR4w4 (DRB1*0401) (Homo sapiens, UniProt P01903+P01911, A100K/A169T/F76Y/I96L/K127E/L162R/M171V/N62H/P40V/Q125Y/R42H/S133A/S149N/S66Y/V115G/V209L/W38E); type: binding
[7] = biological target: DRB1*0802 (Homo sapiens, UniProt P01903+P01911, A100R/A103L/A169T/F76Y/H45Y/I96F/K41T/L162R/M171V/P40S/Q125H/Q178H/Q39Y/Q99D/R218S/R42G/S66Y/V115G/W38E); type: binding
[8] = biological target: DRB1*1302 (Homo sapiens, UniProt P01903+P01911, A100E/A169T/K41T/L162R/M171V/P40S/Q125H/Q178H/Q39Y/Q99D/R42S/S66N/T262R/V115G/W38E/Y61H); type: binding
Sequence of DRB1*1302 (P01903 26-254 limits assumed, other chains not shown): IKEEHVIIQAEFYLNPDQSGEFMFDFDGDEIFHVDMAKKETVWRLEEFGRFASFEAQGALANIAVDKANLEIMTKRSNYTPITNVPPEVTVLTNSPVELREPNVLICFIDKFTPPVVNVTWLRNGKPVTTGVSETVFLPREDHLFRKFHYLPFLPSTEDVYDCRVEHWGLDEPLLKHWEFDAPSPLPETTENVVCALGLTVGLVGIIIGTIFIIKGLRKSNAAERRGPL

[9] = biological target: DRB1*1501 (Homo sapiens, UniProt P01903+P01911); type: binding
[10] = biological target: DRB4*0101 (Homo sapiens, UniProt P01903+P13762, G164S); type: binding
[11] = biological target: DRB1*1101 (Homo sapiens, UniProt P01903+P01911, A100R/A169T/A87E/I96F/K41T/L162R/M171V/P40S/Q125H/Q178H/Q39Y/Q99D/R42S/S66Y/T262R/V115G/W38E); conditions: Binding affinity DRB1 *1101
Sequence of DRB1*1101 (P01903 26-254 limits assumed, other chains not shown): as above

[12] = biological target: DRB5*0101 (Homo sapiens, UniProt P01903+Q30154)
[13] = biological target: DR7 (DRB1*0701) (Homo sapiens, UniProt P01903+P01911, A100R/A102G/A103Q/D57E/D86V/E43K/F76Y/K127E/L162R/M171V/P40G/Q125H/Q99D/R33Q/R42Y/R54Q/S133A/S66F/T210M/V115G/Y107V/Y59L/Y89S); type: binding
[14] = biological target: DRB1*0901 (Homo sapiens, UniProt P01903+P01911, A100R/A103E/D57H/D86V/F55Y/F60I/F76Y/I96F/K127E/L162R/M171V/P40D/Q125H/Q99R/R33Q/R42F/S133A/S66N/T210M/V115G/W38K/Y107V/Y59G/Y89S); type: binding
[15] = biological target: A*0203 (Homo sapiens, UniProt P04439, A173T/D140Y/D185E/D98H/E277Q/G131W/G231S/I119V/I121R/I166T/I218V/L180W/L300P/L318F/N151K/N90K/P208A/P217A/Q86G/Q94H/R138H/R169H/T345S); type: binding

CC[C@H](C)[C@H](NC(=O)[C@@H](NC(=O)[C@@H](NC(=O)[C@@H](NC(=O)[C@@H](NC(=O)[C@@H](NC(=O)[C@@H](N)CCCNC(=N)N)[C@@H](C)O)[C@@H](C)O)C(C)C)[C@@H](C)O)[C@@H](C)O)C(=O)N[C@H](C(=O)N[C@H](C(=O)N[C@@H](Cc1ccc(O)cc1)C(=O)N[C@H](C(=O)O)C(C)C)C(C)C)[C@@H](C)O [Peptide 9013.0304]
pIC50 [1]: 8.02
pIC50 [2]: 7.14
pIC50 [3]: 9.74

ALDGNDISV [Peptide 1578.33]
pIC50 [4]: 7.40
pIC50 [1]: 7.39
pIC50 [2]: 7.32
pIC50 [3]: < 4.70

ELQNTTYLWWV [Peptide 9013.0325]
pIC50 [4]: 5.52
pIC50 [2]: < 4.70
pIC50 [3]: 6.80

FLDAFKKFL [Peptide 1578.31]
pIC50 [4]: 6.80
pIC50 [1]: 7.60
pIC50 [2]: 6.38
pIC50 [3]: < 4.70

FLGAFKKFL [Peptide 1578.22]
pIC50 [4]: 5.23
pIC50 [1]: 8.00
pIC50 [2]: 4.93
pIC50 [3]: < 4.70

GLMIGVLVGVA [Peptide 9013.0345]
pIC50 [4]: 5.66
pIC50 [1]: 7.41
pIC50 [2]: 5.48
pIC50 [3]: < 4.70

GLNLSLSCHAA [Peptide 9013.0312]
pIC50 [4]: 5.85
pIC50 [1]: 7.33
pIC50 [2]: < 4.70
pIC50 [3]: < 4.70

GQFRVYPEV [Peptide 9013.0038]
pIC50 [2]: 7.37
pIC50 [3]: < 4.70

ILNDTGFYT [Peptide 9013.0036]
pIC50 [4]: 6.67
pIC50 [1]: 7.85
pIC50 [2]: 5.42
pIC50 [3]: < 4.70

ILQNDTGFYT [Peptide 9013.0147]
pIC50 [4]: 6.04
pIC50 [1]: 6.73
pIC50 [2]: 4.95
pIC50 [3]: < 4.70

IQNDTGFYT [Peptide 9013.0034]
pIC50 [4]: < 4.70
pIC50 [1]: 5.43
pIC50 [2]: 6.32
pIC50 [3]: < 4.70

IQNIIQNDV [Peptide 9013.0032]
pIC50 [4]: 4.79
pIC50 [1]: 5.71
pIC50 [3]: < 4.70

KILQQLLFI [Peptide 1525.21]
pIC50 [4]: 7.39
pIC50 [2]: 7.29
pIC50 [3]: < 4.70

KLFCADPAL [Peptide 1578.50]
pIC50 [1]: 8.17
pIC50 [3]: < 4.70

KLMSNLLSI [Peptide 1578.21]
pIC50 [4]: 7.80
pIC50 [1]: 8.57
pIC50 [2]: 7.47
pIC50 [3]: < 4.70

KLTQLCVTL [Peptide 1537.02]
pIC50 [4]: 7.62
pIC50 [1]: 8.57
pIC50 [2]: 6.88
pIC50 [3]: < 4.70

LIRLENAILFTAREH [Peptide 90.0002]
pIC50 [5]: 7.64
pIC50 [6]: 5.91
pIC50 [7]: 4.93
pIC50 [8]: 7.29
pIC50 [9]: 5.68
pIC50 [10]: 6.47
pIC50 [11]: 5.24
pIC50 ([12]; Binding affinity DRB5 *0101): 5.37

LKTIIKPHCMYYHMQ [Peptide 89.0119]
pIC50 [5]: < 4.70
pIC50 [6]: 5.70
pIC50 [13]: < 4.70
pIC50 [7]: < 4.70
pIC50 [14]: < 4.70
pIC50 [8]: 6.98
pIC50 [9]: 4.76
pIC50 [10]: 5.77
pIC50 [11]: < 4.70
pIC50 [12]: < 4.70

LLQQYCLYL [Peptide 1578.01]
pIC50 [4]: 6.65
pIC50 [1]: 7.96
pIC50 [15]: 7.77

LTIESTPFNVV [Peptide 9013.0267]
pIC50 [4]: 5.96
pIC50 [1]: 6.73
pIC50 [2]: 7.11
pIC50 [3]: 6.91

MLGVLVGVALI [Peptide 9013.0349]
pIC50 [4]: 5.30
pIC50 [1]: 6.36
pIC50 [2]: 5.33
pIC50 [3]: 5.06

NLAEGKEVLLL [Peptide 9013.0271]
pIC50 [4]: 5.12
pIC50 [1]: 7.74
pIC50 [2]: < 4.70
pIC50 [3]: < 4.70

QQHTQELFV [Peptide 9013.0078]
pIC50 [4]: 5.61
pIC50 [1]: 5.28
pIC50 [3]: < 4.70

RILQQPLFI [Peptide 1545.03]
pIC50 [4]: 6.85
pIC50 [1]: 5.00
pIC50 [2]: 6.06
pIC50 [3]: < 4.70

RLENAILFTV [Peptide 1593.60]
pIC50 [1]: 7.62
pIC50 [15]: 6.80
pIC50 [3]: 4.80

RLIIGYVIGT [Peptide 9013.0140]
pIC50 [4]: 5.73
pIC50 [15]: 6.20
pIC50 [3]: 4.84

RLLLTASLLV [Peptide 9013.0117]
pIC50 [4]: 7.24
pIC50 [1]: 6.91
pIC50 [3]: 5.23

RMLQQLLFT [Peptide 1525.17]
pIC50 [1]: 5.73
pIC50 [15]: 6.31

RTLQQLMFI [Peptide 1525.23]
pIC50 [1]: 5.74
pIC50 [2]: 7.26
pIC50 [3]: < 4.70

SLACSWGMVV [Peptide 1578.02]
pIC50 [4]: 6.09
pIC50 [1]: 7.66
pIC50 [15]: 8.07

STQELFIPNV [Peptide 9013.0181]
pIC50 [4]: 5.26
pIC50 [1]: 5.68
pIC50 [3]: 6.07

TQQATPGPV [Peptide 9013.0027]
pIC50 [4]: < 4.70
pIC50 [2]: 5.23
pIC50 [3]: < 4.70

TTAKLTIESV [Peptide 9013.0125]
pIC50 [4]: < 4.70
pIC50 [1]: 5.39
pIC50 [3]: 7.28

TTQDVSLEV [Peptide 1593.54]
pIC50 [4]: 5.87
pIC50 [1]: 5.63
pIC50 [2]: 6.17
pIC50 [3]: 8.05

TVQDVSLEV [Peptide 1593.55]
pIC50 [1]: 6.32
pIC50 [15]: 7.25
pIC50 [3]: 7.82

VAWDSVYYV [Peptide 1593.57]
pIC50 [4]: 8.36
pIC50 [1]: 7.46
pIC50 [2]: 8.48
pIC50 [3]: 7.32

VLEGKEVLL [Peptide 9013.0019]
pIC50 [4]: 5.54
pIC50 [1]: 7.74
pIC50 [2]: < 4.70
pIC50 [3]: < 4.70

VLFTCEPEA [Peptide 9013.0089]
pIC50 [4]: 6.62
pIC50 [1]: 7.15
pIC50 [2]: 5.34
pIC50 [3]: < 4.70

VQWAYDNDV [Peptide 86.0190]
pIC50 [4]: 5.35
pIC50 [1]: 7.05
pIC50 [2]: 6.37
pIC50 [3]: 5.44

VQWAYDNEL [Peptide 86.0196]
pIC50 [1]: 6.72
pIC50 [2]: 5.96
pIC50 [3]: < 4.70

VVWDSIYYI [Peptide 1578.53]
pIC50 [4]: 7.89
pIC50 [1]: 7.41
pIC50 [2]: 7.96
pIC50 [3]: 7.28

WLNGQSLPV [Peptide 9013.0090]
pIC50 [1]: 8.07
pIC50 [15]: 8.19

WLNYTPGPGI [Peptide 73.0129]
pIC50 [2]: < 4.70

YACFVSNLAV [Peptide 9013.0248]
pIC50 [4]: 5.86
pIC50 [1]: 6.12
pIC50 [2]: 7.15
pIC50 [3]: 7.02

YLHNRLVVFT [Peptide 86.0075]
pIC50 [1]: 6.92
pIC50 [2]: 4.82
pIC50 [3]: 5.80

YLLHVIKSDL [Peptide 9013.0152]
pIC50 [4]: 7.07
pIC50 [1]: 7.66
pIC50 [2]: 7.21

YTNWKFIYL [Peptide 1578.47]
pIC50 [2]: 7.08
pIC50 [3]: 6.84

YVVWDSIYYI [Peptide 1578.52]
pIC50 [4]: 7.11
pIC50 [1]: 6.90
pIC50 [2]: 7.31
